Reference: patent publication US20250304567A1, “PYRROLIDIONE DERIVATIVES AS INHIBITORS OF NF KAPPA B INDUCING KINASE” (priority 2022, published 2025)
Like-named read-outs stand apart in the source and are kept apart here.

What was measured:
[1] = test system: p-IKKa levels in L363 (NIK translocated multiple myeloma) cells; assay: Effect of compounds on p-IKKa levels in L363 (NIK translocated multiple myeloma) cells (AlphaLISA SureFire Ultra p-IKKa Ser176/180); type: cell-based, human; settings: average if tested more than once, read-out: Assay 2 IC50
Procedure, shortened: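 Phospho-IKKa (Ser176/180) in lysates quantified by AlphaLISA after 6 h compound exposure, 11-point threefold dilutions, 0.3% DMSO. L363 cells were pre-stimulated overnight and assayed with 250 ng/ml BAFF and 10 μM MG132; % inhibition fitted sigmoidally for IC50, duplicate curves.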

[2] = target: Recombinant Human NF-kappaB-Inducing Kinase (NIK/MAP3K14) (Homo sapiens, UniProt Q99558); assay: Inhibition of auto-phosphorylation of recombinant human NIK/MAP3K14 activity (AlphaScreen); type: biochemical; settings: 5 μM ATP, 1 nM NIK, average if tested more than once
Sequence of Recombinant Human NF-kappaB-Inducing Kinase (NIK/MAP3K14) (Q99558 whole entry): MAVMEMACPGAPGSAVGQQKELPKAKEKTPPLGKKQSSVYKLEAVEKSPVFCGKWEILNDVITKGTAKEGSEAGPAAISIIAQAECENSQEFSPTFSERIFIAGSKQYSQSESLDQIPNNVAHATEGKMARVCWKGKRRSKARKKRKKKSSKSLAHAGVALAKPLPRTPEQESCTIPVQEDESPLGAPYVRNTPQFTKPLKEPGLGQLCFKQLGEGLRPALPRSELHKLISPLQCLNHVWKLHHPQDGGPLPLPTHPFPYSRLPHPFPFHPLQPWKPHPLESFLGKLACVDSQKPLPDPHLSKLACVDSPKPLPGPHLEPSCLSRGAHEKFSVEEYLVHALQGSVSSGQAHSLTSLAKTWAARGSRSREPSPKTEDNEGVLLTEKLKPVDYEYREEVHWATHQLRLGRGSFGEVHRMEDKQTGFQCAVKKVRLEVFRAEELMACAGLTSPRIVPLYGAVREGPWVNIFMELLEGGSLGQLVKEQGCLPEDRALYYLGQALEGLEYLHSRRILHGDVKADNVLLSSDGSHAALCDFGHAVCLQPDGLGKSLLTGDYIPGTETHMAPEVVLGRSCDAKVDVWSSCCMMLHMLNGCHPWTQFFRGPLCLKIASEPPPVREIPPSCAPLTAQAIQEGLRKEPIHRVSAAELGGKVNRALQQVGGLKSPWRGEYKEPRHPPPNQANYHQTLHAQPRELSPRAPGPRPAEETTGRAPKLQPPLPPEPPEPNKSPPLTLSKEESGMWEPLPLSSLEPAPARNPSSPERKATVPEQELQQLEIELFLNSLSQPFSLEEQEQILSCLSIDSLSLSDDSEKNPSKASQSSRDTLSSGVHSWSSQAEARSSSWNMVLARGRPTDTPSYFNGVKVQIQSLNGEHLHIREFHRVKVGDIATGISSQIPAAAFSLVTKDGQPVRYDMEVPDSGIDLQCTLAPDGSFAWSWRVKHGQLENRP
Procedure, shortened: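 AlphaScreen detection of phospho-Ser176/180 after 1 nM GST-NIK auto-phosphorylates for 2 h at 25 °C with 5 μM ATP (50 mM Tris pH 7.5, 0.7% DMSO). IC50s come from sigmoidal curves of % inhibition against log dose, using enzyme-free, ATP-free low controls and full-activity high controls.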

[3] = Homo sapiens, L-363, p-IKKa levels in L363 cells

SMILES | IC50 ([1]; p-IKKa levels in L363 cells) | IC50 [2] | IC50 [1, 3]
CN1CC(F)(F)C(O)(c2cccc(-c3nc(-c4ccnc(Nc5ccn(C)n5)n4)cs3)c2)C1=O (single isomer, unassigned) [Example 36, 4,4-difluoro-3-hydroxy-1-methyl-3-(3-(4-(2-((1-methyl-1H-pyrazol-3-yl)amino)pyrimidin-4-yl)thiazol-2-yl)phenyl)pyrrolidin-2-one] | 100 to 500 nM | < 100 nM | 
C[C@@H](Nc1nccc(-n2ccc(-c3cccc([C@]4(O)CCN(C)C4=O)c3)n2)n1)c1cnn(C)c1 (single isomer, unassigned) [Example 94] |  | < 100 nM | > 501 nM
CN1CC[C@@](O)(c2cccc(-c3nc(-c4ccnc(Nc5ccn(CC(F)(F)F)n5)n4)cs3)c2)C1=O [Example 75, (R)-3-hydroxy-1-methyl-3-(3-(4-(2-((1-(2,2,2-trifluoroethyl)-1H-pyrazol-3-yl)amino)pyrimidin-4-yl)thiazol-2-yl)phenyl)pyrrolidin-2-one] |  | < 100 nM | 100 to 500 nM
C[C@@H](Nc1nccc(-c2nc(-c3cccc([C@]4(O)CCN(C)C4=O)c3)cs2)n1)c1ccnn1C (single isomer, unassigned) [Example 127] |  | < 100 nM | 100 to 500 nM
CN1C(=O)[C@@](O)(c2cncc(-c3csc(-c4ccnc(Nc5ccn(C)n5)n4)n3)c2)C[C@@H]1C(F)(F)F (single isomer, unassigned) [Example 62] |  | > 501 nM | > 501 nM
Cc1cc(CNc2nccc(-c3csc(-c4cccc([C@]5(O)CCN(C)C5=O)c4)n3)n2)nn1C [Example 209] |  | < 100 nM | > 501 nM
Cc1cc(Nc2nccc(-c3csc(-c4cccc([C@]5(O)CCN(C)C5=O)c4)n3)n2)ncn1 [Example 106, (R)-3-hydroxy-1-methyl-3-(3-(4-(2-((6-methylpyrimidin-4-yl)amino)pyrimidin-4-yl)thiazol-2-yl)phenyl)pyrrolidin-2-one] |  | < 100 nM | > 501 nM
Cc1sc(-c2cccc([C@]3(O)CCN(C)C3=O)c2)nc1-c1ccnc(Nc2ccn(C)n2)n1 [Example 17, (R)-3-Hydroxy-1-methyl-3-(3-(5-methyl-4-(2-((1-methyl-1H-pyrazol-3-yl)amino)pyrimidin-4-yl)thiazol-2-yl)phenyl)pyrrolidin-2-one] |  | < 100 nM | > 501 nM
CCn1ncc(C)c1Nc1nccc(-c2csc(-c3cccc([C@]4(O)CCN(C)C4=O)c3)n2)n1 [Example 64, (R)-3-(3-(4-(2-((1-ethyl-4-methyl-1H-pyrazol-5-yl)amino)pyrimidin-4-yl)thiazol-2-yl)phenyl)-3-hydroxy-1-methylpyrrolidin-2-one] |  | > 501 nM | > 501 nM
CN1CC(F)(F)C(O)(c2cccc(-c3nc(-c4ccnc(Nc5ccn(C)n5)n4)cs3)c2)C1=O (single isomer, unassigned) [Example 35, 4,4-difluoro-3-hydroxy-1-methyl-3-(3-(4-(2-((1-methyl-1H-pyrazol-3-yl)amino)pyrimidin-4-yl)thiazol-2-yl)phenyl)pyrrolidin-2-one] | > 501 nM | > 501 nM | 
CN1CC[C@@](O)(c2cccc(-c3nc(-c4ccnc(Nc5cn(CC6CCC6)cn5)n4)cs3)c2)C1=O [Example 125, (R)-3-(3-(4-(2-((1-(cyclobutylmethyl)-1H-imidazol-4-yl)amino)pyrimidin-4-yl)thiazol-2-yl)phenyl)-3-hydroxy-1-methylpyrrolidin-2-one] |  | < 100 nM | > 501 nM
CN1CC[C@@](O)(c2cccc(-c3nc(-c4ccnc(NCC5CCO5)n4)cs3)c2)C1=O (stereo partly drawn) [Example 190] |  | 100 to 500 nM | > 501 nM
CN1CC[C@@](O)(c2cccc(-c3nc(-c4ccnc(Nc5ccccn5)n4)cs3)c2)C1=O [Example 77, (R)-3-hydroxy-1-methyl-3-(3-(4-(2-(pyridin-2-ylamino)pyrimidin-4-yl)thiazol-2-yl)phenyl)pyrrolidin-2-one] |  | < 100 nM | > 501 nM
CN1CC[C@@](O)(c2cccc(-c3csc(-c4ccnc(Nc5cnn(C)c5)n4)n3)c2)C1=O [Example 79, (R)-3-hydroxy-1-methyl-3-(3-(2-(2-((1-methyl-1H-pyrazol-4-yl)amino)pyrimidin-4-yl)thiazol-4-yl)phenyl)pyrrolidin-2-one] |  | < 100 nM | > 501 nM
C[C@@H](Nc1nccc(-c2nc(-c3cc([C@]4(O)CCN(C)C4=O)ccn3)cs2)n1)c1ccnn1C [Example 291, (R)-3-Hydroxy-1-methyl-3-(2-(2-(2-(((R)-1-(1-methyl-1H-pyrazol-5-yl)ethyl)amino)pyrimidin-4-yl)thiazol-4-yl)pyridin-4-yl)pyrrolidin-2-one] |  | < 100 nM | 100 to 500 nM
CN1C(=O)[C@@](O)(c2ccnc(-c3csc(-c4ccnc(Nc5ccn(C)n5)n4)n3)c2)C[C@@H]1C(F)(F)F (single isomer, unassigned) [Example 60] |  | 100 to 500 nM | > 501 nM
CN1CC[C@@](O)(c2cccc(-c3nc(-c4ccnc(Nc5ccn(C)n5)n4)cs3)c2)C1=O [Example 56, (R)-3-hydroxy-1-methyl-3-(3-(4-(2-((1-methyl-1H-pyrazol-3-yl)amino)pyrimidin-4-yl)thiazol-2-yl)phenyl)pyrrolidin-2-one] |  | < 100 nM | 100 to 500 nM
CN1CCC(O)(c2ccnc(-c3cccc(-c4ccnc(Nc5ccn(C)n5)n4)n3)c2)C1=O (racemic) [Example 31, (R,S)-3-Hydroxy-1-methyl-3-(6′-(2-((1-methyl-1H-pyrazol-3-yl)amino)pyrimidin-4-yl)-[2,2′-bipyridin]-4-yl)pyrrolidin-2-one] |  | > 501 nM | > 501 nM
CC(Nc1nccc(-c2csc(-c3cccc([C@]4(O)CCN(C)C4=O)c3)n2)n1)c1ccn(C)n1 (stereo partly drawn) [Example 112, (R)-3-hydroxy-1-methyl-3-(3-(4-(2-(((R,S)-1-(1-methyl-1H-pyrazol-3-yl)ethyl)amino)pyrimidin-4-yl)thiazol-2-yl)phenyl)pyrrolidin-2-one] |  | < 100 nM | > 501 nM
CN1CC[C@@](O)(c2cccc(-c3nc(-c4ccnc(NC5CC6CC(O)C5C6)n4)cs3)c2)C1=O (stereo partly drawn) [Example 220] |  | 100 to 500 nM | > 501 nM
CN1C(=O)[C@](O)(c2ccnc(-c3csc(-c4ccnc(Nc5ccn(C)n5)n4)n3)c2)C[C@H]1C(F)(F)F (single isomer, unassigned) [Example 59] |  | < 100 nM | 100 to 500 nM
CN1CC[C@@](O)(c2cccc(-c3nc(-c4ccnc(Nc5nn(C)c6ccccc56)n4)cs3)c2)C1=O [Example 69, (R)-3-hydroxy-1-methyl-3-(3-(4-(2-((1-methyl-1H-indazol-3-yl)amino)pyrimidin-4-yl)thiazol-2-yl)phenyl)pyrrolidin-2-one] |  | < 100 nM | > 501 nM
CCn1cc(Nc2nccc(-c3csc(-c4cccc([C@]5(O)CCN(C)C5=O)c4)n3)n2)cn1 [Example 268, (R)-3-(3-(4-(2-((1-ethyl-1H-pyrazol-4-yl)amino)pyrimidin-4-yl)thiazol-2-yl)phenyl)-3-hydroxy-1-methylpyrrolidin-2-one] |  | < 100 nM | 100 to 500 nM
CN1CC[C@@](O)(c2ccnc(-c3csc(-c4ccnc(Nc5cnn(C)c5)n4)n3)c2)C1=O (single isomer, unassigned) [Example 151] |  | < 100 nM | < 100 nM
CN1CC[C@@](O)(c2cccc(-c3nc(-c4ccnc(Nc5cnn(C6CCOCC6)c5)n4)cs3)c2)C1=O [Example 273, (R)-3-Hydroxy-1-methyl-3-(3-(4-(2-((1-(tetrahydro-2H-pyran-4-yl)-1H-pyrazol-4-yl)amino)pyrimidin-4-yl)thiazol-2-yl)phenyl)pyrrolidin-2-one] |  | < 100 nM | < 100 nM
CN1CC[C@@](O)(c2cncc(-c3ccn(-c4ccnc(Nc5cnn6ccccc56)n4)n3)c2)C1=O (single isomer, unassigned) [Example 146, (R)-3-hydroxy-1-methyl-3-(5-(1-(2-(pyrazolo[1,5-a]pyridin-3-ylamino)pyrimidin-4-yl)-1H-pyrazol-3-yl)pyridin-3-yl)pyrrolidin-2-one or (S)-3-hydroxy-1-methyl-3-(5-(1-(2-(pyrazolo[1,5-a]pyridin-3-ylamino)pyrimidin-4-yl)-1H-pyrazol-3-yl)pyridin-3-yl)pyrrolidin-2-one] |  | < 100 nM | < 100 nM
CO[C@H]1C[C@H](Nc2nccc(-c3csc(-c4cccc([C@]5(O)CCN(C)C5=O)c4)n3)n2)C1 [Example 215] |  | < 100 nM | > 501 nM
CN1CC[C@@](O)(c2cccc(-c3nc(-c4ccnc(Nc5ccn(CC(F)F)n5)n4)cs3)c2)C1=O [Example 258, (R)-3-(3-(4-(2-((1-(2,2-Difluoroethyl)-1H-pyrazol-3-yl)amino)pyrimidin-4-yl)thiazol-2-yl)phenyl)-3-hydroxy-1-methylpyrrolidin-2-one] |  | < 100 nM | 100 to 500 nM
C[C@H](Nc1nccc(-n2ccc(-c3cccc([C@]4(O)CCN(C)C4=O)c3)n2)n1)c1ccnn1C (single isomer, unassigned) [Example 91] |  | < 100 nM | 100 to 500 nM
CN1C(=O)[C@@](O)(c2cccc(-c3nc(-c4ccnc(Nc5ccn(C)n5)n4)cs3)c2)C[C@H]1C(F)(F)F (relative stereo) [Example 38, (trans)-3-hydroxy-1-methyl-3-(3-(4-(2-((1-methyl-1H-pyrazol-3-yl)amino)pyrimidin-4-yl)thiazol-2-yl)phenyl)-5-(trifluoromethyl)pyrrolidin-2-one] | 100 to 500 nM | < 100 nM | 
